Data from ChEMBL document CHEMBL1142355, “Antimalarial dual drugs based on potent inhibitors of glutathione reductase from Plasmodium falciparum” (J Med Chem, 2008).

Columns and labels:
[1] = tested on: Plasmodium falciparum; assay: Antiparasitic activity against chloroquine-resistant Plasmodium falciparum K1; format: functional, organism-based
[2] = tested on: KB; assay: Cytotoxicity against human KB cells by alamar blue assay; format: functional, cell-based; conditions: for CC50: read-out: TD50 (the source's name)
[3] = tested on: Plasmodium falciparum; assay: Antiparasitic activity against chloroquine-sensitive Plasmodium falciparum 3D7; format: functional, organism-based
[4] = tested on: Plasmodium falciparum; assay: Relative IC50 against Plasmodium falciparum K1 and 3D7; format: functional
[5] = tested on: Plasmodium falciparum; assay: microbe, parasite or virus in culture; conditions: 3 h
Description: Antiparasitic activity against chloroquine-sensitive Plasmodium falciparum by [3H]hypoxanthine incorporation

[6] = tested on: Plasmodium berghei; assay: Antimalarial 95% clearance activity against Plasmodium berghei ANKA infected BALB/c mice (Mus musculus) at 21 mg/kg intraperitoneal dose after 4 days; format: functional
[7] = tested on: Plasmodium berghei; assay: Reduced parasitemia in Plasmodium berghei ANKA infected BALB/c mice (Mus musculus) at 21 mg/kg intraperitoneal dose after 4 days; format: functional; design: scale not given: the % may be the effect or the level left
[8] = tested on: Plasmodium berghei; assay: Antimalarial activity against Plasmodium berghei ANKA infected BALB/c mice (Mus musculus) at 21 mg/kg intraperitoneal dose after 4 days; format: functional; conditions: ip, 96 h
[9] = tested on: Plasmodium berghei; assay: Antimalarial 95% clearance activity against Plasmodium berghei ANKA infected BALB/c mice (Mus musculus) at 30 mg/kg intraperitoneal dose after 4 days; format: functional
[10] = tested on: Plasmodium berghei; assay: Reduced parasitemia in Plasmodium berghei ANKA infected BALB/c mice (Mus musculus) at 30 mg/kg intraperitoneal dose after 4 days; format: functional; design: scale not given: the % may be the effect or the level left
[11] = tested on: Plasmodium berghei; assay: Antimalarial activity against Plasmodium berghei ANKA infected BALB/c mice (Mus musculus) at 30 mg/kg intraperitoneal dose after 4 days; format: functional; conditions: ip, 96 h
[12] = tested on: Plasmodium berghei; assay: Reduced parasitemia in Plasmodium berghei ANKA infected BALB/c mice (Mus musculus) at 10 mg/kg peroral dose after 4 days; format: functional; design: scale not given: the % may be the effect or the level left; conditions: route oral
[13] = tested on: Plasmodium berghei; assay: Antimalarial activity against Plasmodium berghei ANKA infected BALB/c mice (Mus musculus) at 10 mg/kg peroral dose after 4 days; format: functional; conditions: 96 h, route oral

Structure (SMILES) | IC50 [1] | CC50 [2] | IC50 [3] | Ratio IC50 [4] | further results
CC(C)(C)NCCNc1ccnc2cc(Cl)ccc12 | 128 nM | 143000 nM | 21.2 nM | 6 | 
CCN(CC)Cc1cc(Nc2ccnc3cc(Cl)ccc23)ccc1O.Cl | 6.4 nM |  |  | 0.6 | IC50 [5]: 9.5 nM
COc1c(C)c(CN(CCNc2ccnc3cc(Cl)ccc23)C(C)C)c(OC)c2ccccc12 | 105 nM | 85800 nM | 83.7 nM |  | 
COc1cc(CN(CCNc2ccnc3cc(Cl)ccc23)CC(C)(C)C)c(OC)c2ccccc12 | 154 nM | 8800 nM | 237 nM |  | 
CCN(CC)Cc1cc(Nc2ccnc3cc(Cl)ccc23)ccc1OCc1c(C(F)(F)F)c(OC)c2ccccc2c1OC | 32 nM | 15000 nM | 32 nM | 1 | 
COc1c(C)c(CCCCCC(=O)N(CCNc2ccnc3cc(Cl)ccc23)C(C)C)c(OC)c2ccccc12 | 302 nM | 6900 nM | 52.8 nM | 5.7 | 
COc1cc(CNCCNc2ccnc3cc(Cl)ccc23)c(OC)c2ccccc12 | 28.4 nM | 3800 nM | 23.7 nM |  | 
Clc1ccc2c(N3CC3)ccnc2c1 | 39200 nM | 102000 nM | 16000 nM | 2.4 | 
COc1c(CNCCNc2ccnc3cc(Cl)ccc23)c(C(F)(F)F)c(OC)c2ccccc12 | 16 nM | 28500 nM | 128 nM |  | 
COc1cc(CN(CCNc2ccnc3cc(Cl)ccc23)CC(C)C)c(OC)c2ccccc12 | 188 nM | 43800 nM | 146 nM |  | 
CC1=C(CCCCCC(=O)NCCNc2ccnc3cc(Cl)ccc23)C(=O)c2ccccc2C1=O | 367 nM | 22200 nM | 184 nM | 2 | 
COc1c(C)c(CN(CCNc2ccnc3cc(Cl)ccc23)CC(C)C)c(OC)c2ccccc12 | 40.6 nM | 30600 nM | 183 nM |  | 
COc1cc(CN(CCNc2ccnc3cc(Cl)ccc23)C(C)C)c(OC)c2ccccc12 | 345 nM |  | 517 nM |  | IC50 [2]: 67000 nM
COc1c(CN(CCNc2ccnc3cc(Cl)ccc23)CC(C)C)c(C(F)(F)F)c(OC)c2ccccc12 | 198 nM | 11900 nM | 162 nM |  | 
COc1c(CN(CCNc2ccnc3cc(Cl)ccc23)C(C)C)c(C(F)(F)F)c(OC)c2ccccc12 | 299 nM | 35400 nM | 184 nM |  | 
COc1c(C)c(CNCCNc2ccnc3cc(Cl)ccc23)c(OC)c2ccccc12 | 22.9 nM | 5100 nM | 229 nM |  | 
CC(C)(C)CNCCNc1ccnc2cc(Cl)ccc12 | 6.8 nM | 62100 nM | 20.6 nM | 0.3 | 
COc1c(C)c(Cc2ccc(CC(=O)NCCNc3ccnc4cc(Cl)ccc34)cc2)c(OC)c2ccccc12 | 505 nM | 11500 nM | 289 nM | 1.7 | 
COc1c(C)c(Cc2ccc(CC(=O)N(CCNc3ccnc4cc(Cl)ccc34)C(C)C)cc2)c(OC)c2ccccc12 | 268 nM | 1700 nM | 319 nM | 0.8 | 
Clc1ccc2c(NCCNCC3CC3)ccnc2c1 | 145 nM | 71900 nM | 2.7 nM | 53.7 | 
CC(C)NCCCNc1ccnc2cc(Cl)ccc12 | 144 nM | 47900 nM | 3.6 nM | 40 | 

Structure (SMILES) | IC50 [1] | CC50 [2] | IC50 [3] | Ratio IC50 [4] | further results
CC(C)NCCNc1ccnc2cc(Cl)ccc12 | 96.7 nM | 89800 nM | 10.2 nM | 9.5 | 
COc1c(C)c(CN(CCNc2ccnc3cc(Cl)ccc23)CC(C)(C)C)c(OC)c2ccccc12 | 134 nM | 10600 nM | 156 nM |  | 
CC(C)(C)NC(=O)CNc1ccnc2cc(Cl)ccc12 | 1440 nM | 194000 nM | 994 nM | 1.4 | 
CC1=C(CCCCCC(=O)N(CCNc2ccnc3cc(Cl)ccc23)C(C)C)C(=O)c2ccccc2C1=O | 9.4 nM | 37000 nM | 7.5 nM | 1.1 | Activity [6]: 2.65%; Activity [7]: 12.5%; inhibition in vivo at 21 mg/kg [8]: 18.2%
CC(=O)Nc1ccc(O)c(CN(CCCNc2ccnc3cc(Cl)ccc23)C(C)C)c1 | 318 nM | 180000 nM | 22.7 nM |  | 
CC(C)CNCCNc1ccnc2cc(Cl)ccc12 | 72 nM | 22500 nM | 22.8 nM | 3.1 | 
COc1c(COc2ccc(NC(C)=O)cc2)c(C(F)(F)F)c(OC)c2ccccc12 | 15700 nM | > 715000 nM | 6440 nM | 2.4 | 
CC1=C(Cc2ccc(CC(=O)N(CCNc3ccnc4cc(Cl)ccc34)C(C)C)cc2)C(=O)c2ccccc2C1=O | 5.3 nM | 318000 nM | 12.4 nM | 0.4 | 
COc1c(CN(CCNc2ccnc3cc(Cl)ccc23)CC(C)(C)C)c(C(F)(F)F)c(OC)c2ccccc12 | 116 nM | 12000 nM | 146 nM |  | 
CC(C)(C)CNCCNc1ccnc2cc(Cl)ccc12.Cl |  |  |  |  | Activity [9]: 0.31%; Activity [10]: 0.86%; inhibition in vivo at 30 mg/kg [11]: 94.4%
COc1c(CNCCNc2ccnc3cc(Cl)ccc23)c(C(F)(F)F)c(OC)c2ccccc12.Cl |  |  |  |  | Activity [9]: 2.82%; Activity [10]: 12.48%; inhibition in vivo at 30 mg/kg [11]: 18.3%
CO[C@H]1O[C@@H]2O[C@@]3(C)CC[C@H]4[C@H](C)CC[C@@H]([C@H]1C)[C@@]24OO3 |  |  |  |  | IC50 [5]: 2.8 nM
NCCNc1ccnc2cc(Cl)ccc12 | 1800 nM | 49600 nM | 4.5 nM | 400 | 
CC(=O)Nc1ccc(O)cc1 [ACETAMINOPHEN] | 86700 nM |  | > 198000 nM | <0.4 | 
C[C@@H]1CC[C@H]2[C@@H](C)C(=O)O[C@@H]3O[C@@]4(C)CC[C@@H]1[C@]32OO4 [ARTEMISININ] |  |  |  |  | IC50 [5]: 4.5 nM
CCN(CC)CCCC(C)Nc1ccnc2cc(Cl)ccc12 (stereo unspecified) [CHLOROQUINE] |  | 127000 nM |  |  | Activity [12]: 0.13%; inhibition in vivo at 10 mg/kg [13]: 99.2%
O[C@@H](c1cc(C(F)(F)F)nc2c(C(F)(F)F)cccc12)[C@H]1CCCCN1 [MEFLOQUINE] |  |  |  |  | IC50 [5]: 4.85 nM
CN(C)c1ccc2nc3ccc(N(C)C)cc3[s+]c2c1 [METHYLENE BLUE ANHYDROUS] |  |  |  |  | IC50 [5]: 5.4 nM
Clc1ccc2c(N3CCN(CCCN4CCN(c5ccnc6cc(Cl)ccc56)CC4)CC3)ccnc2c1 [PIPERAQUINE] |  |  |  |  | IC50 [5]: 14.6 nM
COc1cc([C@@H]2c3cc4c(cc3[C@H](O)[C@H]3COC(=O)[C@H]23)OCO4)cc(OC)c1OC [PODOFILOX] |  | 49600 nM |  |  | 
